From ChEMBL document CHEMBL3425501, “Synthesis and Evaluation of Quinazolines as Inhibitors of the Bacterial Cell Division Protein FtsZ” (ACS Med Chem Lett, 2015)
Activity calls are given as the source filed them. The rule behind the calls is not given here.

target: T1, Cell division protein FtsZ (Bacillus subtilis (strain 168), UniProt P17865); test: Inhibition of Bacillus subtilis FtsZ GTPase activity after 5 mins by enzyme-coupled inhibition assay
T1 sequence (P17865 whole entry): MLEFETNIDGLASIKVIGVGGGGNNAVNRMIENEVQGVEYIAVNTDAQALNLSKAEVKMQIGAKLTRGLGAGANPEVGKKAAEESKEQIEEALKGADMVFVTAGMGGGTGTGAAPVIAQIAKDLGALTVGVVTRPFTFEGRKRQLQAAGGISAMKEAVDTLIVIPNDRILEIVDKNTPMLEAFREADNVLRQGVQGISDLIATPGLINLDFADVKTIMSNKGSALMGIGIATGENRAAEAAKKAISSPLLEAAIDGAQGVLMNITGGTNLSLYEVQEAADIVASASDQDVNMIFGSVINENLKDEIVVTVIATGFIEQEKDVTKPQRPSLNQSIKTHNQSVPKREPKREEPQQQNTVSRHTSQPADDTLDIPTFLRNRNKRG

IC50 [µM]	SMILES
> 128	Cc1ccc2nc(NCc3ccccc3)nc(NCCN(C)C)c2c1
> 128	Cc1ccc2nc(/C=C/c3ccc(I)cc3)nc(NCCN(C)C)c2c1
> 128	Cc1ccc2nc(NCc3ccc(Cl)cc3)nc(NCCN(C)C)c2c1
> 128	Cc1ccc2nc(/C=C/c3ccc(C(C)(C)C)cc3)nc(NCCN(C)C)c2c1
> 128	Cc1ccc2nc(N)nc(NCCN(C)C)c2c1
> 128	Cc1ccc2nc(-c3cccs3)nc(NCCN(C)C)c2c1
> 128	Cc1ccc2nc(/C=C/c3ccc(C(F)(F)F)cc3)nc(NCCN(C)C)c2c1
> 128	Cc1ccc2nc(-c3ccc4ccccc4c3)nc(NCCN(C)C)c2c1
> 128	Cc1ccc2nc(-c3cc4ccccc4o3)nc(NCCN(C)C)c2c1
> 128	COc1ccc(-c2nc(NCCN(C)C)c3cc(C)ccc3n2)cc1
> 128	Cc1ccc2nc(/C=C/c3ccc(Br)cc3)nc(NCCN(C)C)c2c1
> 128	Cc1ccc2nc(-c3ccc(Cl)cc3)nc(NCCN(C)C)c2c1

target: not listed separately; test: Inhibition of bacterial FtsZ GTPase activity (unknown origin)

IC50 [µM]	SMILES
12	CN(C)CCNc1nc(/C=C/c2ccc(Cl)cc2)nc2cc3ccccc3cc12
24	CCN(CC)CCNc1nc(/C=C/c2ccc(Cl)cc2)nc2cc3ccccc3cc12

target: T2, Cell division protein FtsZ (Escherichia coli K-12) (UniProt P0A9A6); test: Competitive inhibition of Escherichia coli FtsZ GTPase activity after 5 mins by enzyme-coupled inhibition assay in presence of 10 to 1250 uM GTP
T2 sequence (whole entry): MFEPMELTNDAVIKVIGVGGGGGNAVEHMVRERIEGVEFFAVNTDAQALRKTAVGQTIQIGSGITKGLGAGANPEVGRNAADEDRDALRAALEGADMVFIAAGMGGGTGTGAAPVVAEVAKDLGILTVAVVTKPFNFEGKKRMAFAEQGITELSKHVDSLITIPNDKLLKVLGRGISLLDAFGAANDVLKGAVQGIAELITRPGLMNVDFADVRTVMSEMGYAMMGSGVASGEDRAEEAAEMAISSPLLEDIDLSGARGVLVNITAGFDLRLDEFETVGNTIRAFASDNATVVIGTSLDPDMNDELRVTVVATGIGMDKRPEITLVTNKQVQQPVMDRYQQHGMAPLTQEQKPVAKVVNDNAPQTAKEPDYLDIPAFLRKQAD

inhibition	SMILES
inactive	CCN(CC)CCNc1nc(/C=C/c2ccc(Cl)cc2)nc2cc3ccccc3cc12

target: T3, Cell division protein FtsZ (Escherichia coli K-12, UniProt P0A9A6); test: Inhibition of Escherichia coli FtsZ GTPase activity after 5 mins by enzyme-coupled inhibition assay
T3 sequence (P0A9A6 whole entry): T2 sequence (whole entry)

SMILES	IC50 [µM]
CN(C)CCNc1nc(/C=C/c2ccc(Cl)cc2)nc2ccc(C(=O)c3ccccc3)cc12	85
CN(C)CCNc1nc(/C=C/c2ccc(Cl)cc2)nc2ccc(-c3cccs3)cc12	> 128
COc1cc2nc(/C=C/c3ccc(Cl)cc3)nc(NCCN(C)C)c2cc1OC	100
Cc1ccc2nc(C(=O)Nc3ccc(Cl)cc3)nc(NCCN)c2c1	> 128
Cc1ccc2nc(/C=C/c3ccc(Cl)cc3)nc(NCCNC(=O)OC(C)(C)C)c2c1	> 128
CN(C)CCNc1nc(/C=C/c2ccc(Cl)cc2)nc2ccc(Br)cc12	30
CN(C)CCNc1nc(/C=C/c2ccc(Cl)cc2)nc2cc(C(F)(F)F)ccc12	> 128
Cc1cccc2nc(/C=C/c3ccc(Cl)cc3)nc(NCCN(C)C)c12	> 128
Cc1ccc2nc(/C=C/c3ccc(Cl)cc3)nc(NCCN(C)C)c2c1	24
Cc1ccc2nc(C(=O)NCc3ccc(Cl)cc3)nc(NCCN(C)C)c2c1	> 128
CN(C)CCNc1nc(/C=C/c2ccc(Cl)cc2)nc2ccc(-c3ccncc3)cc12	30
CN(C)CCNc1nc(/C=C/c2ccc(Cl)cc2)nc2ccc(C3=CCCCC3)cc12	49
Cc1ccc2nc(/C=C/c3ccc(Cl)cc3)nc(NCCN)c2c1	27
COCCNc1nc(/C=C/c2ccc(Cl)cc2)nc2ccc(C)cc12	> 128

The next lines start with the values.

IC50 [µM]	SMILES
28	CN(C)CCNc1nc(/C=C/c2ccc(Cl)cc2)nc2ccc(-c3ccccc3)cc12
> 128	CC(C)(C)OC(=O)CNc1nc(/C=C/c2ccc(Cl)cc2)nc2cc3ccccc3cc12
> 128	COCCNc1nc(/C=C/c2ccc(Cl)cc2)nc2cc3ccccc3cc12
24	CN(C)CCNc1nc(/C=C/c2ccc(I)cc2)nc2cc3ccccc3cc12
65	CN(C)CCCNc1nc(/C=C/c2ccc(Cl)cc2)nc2cc3ccccc3cc12
58	CN(C)CCNc1nc(/C=C/c2ccc(Cl)cc2)nc2ccc(-c3ccc4ccccc4c3)cc12
> 128	COCCCNc1nc(/C=C/c2ccc(Cl)cc2)nc2cc3ccccc3cc12
> 128	CC(=O)NCCNc1nc(/C=C/c2ccc(Cl)cc2)nc2cc3ccccc3cc12
95	CN(C)CCNc1nc(/C=C/c2ccc(Cl)cc2)nc2ccc(I)cc12
> 128	CN(C)CCNc1nc(/C=C/c2ccc(Cl)cc2)nc2ccccc12
14	CN(C)CCNc1nc(/C=C/c2ccc(N=[N+]=[N-])cc2)nc2cc3ccccc3cc12
26	CN(C)CCOc1nc(/C=C/c2ccc(Cl)cc2)nc2cc3ccccc3cc12
52	C[N+](C)(C)CCNc1nc(/C=C/c2ccc(Cl)cc2)nc2cc3ccccc3cc12
> 128	CC(C)(C)OC(=O)NCCNc1nc(/C=C/c2ccc(Cl)cc2)nc2cc3ccccc3cc12
9	NCCNc1nc(/C=C/c2ccc(Cl)cc2)nc2cc3ccccc3cc12
> 128	CSCCNc1nc(/C=C/c2ccc(Cl)cc2)nc2cc3ccccc3cc12

target: T4, Cell division protein FtsZ (Staphylococcus aureus, UniProt P0A031); test: Activation of Staphylococcus aureus FtsZ GTPase activity
T4 sequence (P0A031 whole entry): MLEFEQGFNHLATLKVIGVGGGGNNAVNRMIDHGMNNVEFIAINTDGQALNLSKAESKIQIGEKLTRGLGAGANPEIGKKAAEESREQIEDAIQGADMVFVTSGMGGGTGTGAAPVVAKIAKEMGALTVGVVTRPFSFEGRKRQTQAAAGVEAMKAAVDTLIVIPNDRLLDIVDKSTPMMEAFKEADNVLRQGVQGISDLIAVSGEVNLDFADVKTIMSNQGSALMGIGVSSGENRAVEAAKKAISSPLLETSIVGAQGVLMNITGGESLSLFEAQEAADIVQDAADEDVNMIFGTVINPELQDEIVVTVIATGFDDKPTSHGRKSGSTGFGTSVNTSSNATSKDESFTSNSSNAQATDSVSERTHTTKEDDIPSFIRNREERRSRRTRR

EC50 [µM]	SMILES
4	NC(=O)c1c(F)ccc(OCc2nc3cc(Cl)cnc3s2)c1F
